From US7741327B2 (Hoffmann-La Roche Inc., priority 2008, dated 2010)

Each compound was assayed against T1, Recombinant human liver GK1 (GST-GK) (Homo sapiens, UniProt P35557) (assay: In vitro glucokinase activity (G6PDH-coupled NADH assay)). Details: 30° C., 5 mM D-glucose, 10% DMSO.
T1 construct: made in house; host or cells: E. coli
T1 sequence (P35557 1-466 isoform P35557-2): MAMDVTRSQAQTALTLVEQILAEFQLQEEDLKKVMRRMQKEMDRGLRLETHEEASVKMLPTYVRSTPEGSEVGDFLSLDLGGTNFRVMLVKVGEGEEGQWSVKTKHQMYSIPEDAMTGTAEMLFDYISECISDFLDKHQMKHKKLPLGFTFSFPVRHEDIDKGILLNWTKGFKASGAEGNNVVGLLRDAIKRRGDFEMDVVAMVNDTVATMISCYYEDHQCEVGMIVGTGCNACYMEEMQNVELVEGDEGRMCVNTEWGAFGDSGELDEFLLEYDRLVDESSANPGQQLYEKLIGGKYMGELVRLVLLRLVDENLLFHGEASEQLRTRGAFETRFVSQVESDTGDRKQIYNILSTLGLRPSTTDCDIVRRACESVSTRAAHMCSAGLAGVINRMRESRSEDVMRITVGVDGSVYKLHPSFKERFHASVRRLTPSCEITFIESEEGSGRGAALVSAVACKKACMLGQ
Type: biochemical
Summary of the method: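 Activation measured as the rate of OD340 rise from G6PDH-coupled NADH production, relative to 10% DMSO control, reported as SC1.5 (concentration for 50% activity increase). Conditions: 30° C, pH 7.1 Hepes, 5 mM glucose, 1 mM ATP, purified recombinant GST-human GK1, compound preincubated 10 min before enzyme addition.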

Point of comparison: `O=C(Nc1ccn(C[C@@H](O)CO)n1)C(CCC(F)(F)F)N1CC(Oc2ccccc2Cl)=CC1=O` (stereo partly drawn) [Example 220, 2-[4-(2-Chloro-phenoxy)-2-oxo-2,5-dihydro-pyrrol-1-yl]-5,5,5-trifluoro-pentanoic acid [1-((R)-2,3-dihydroxy-propyl)-1H-pyrazol-3-yl]-amide], “SC1.5 (concentration of activator that produced a 50% increase in the activity of GK)” value 1.8 µM. Against it:
- COc1ccc(F)c(OC2=CC(=O)N([C@@H](CC(C)C)C(=O)Nc3ccn(C[C@@H](O)CO)n3)C2)c1F [Example 119, (S)-2-[4-(2,6-Difluoro-3-methoxy-phenoxy)-2-oxo-2,5-dihydro-pyrrol-1-yl]-4-methyl-pentanoic acid [1-((R)-2,3-dihydroxy-propyl)-1H-pyrazol-3-yl]-amide] — 25-fold lower, 0.072 µM
- Cc1ccccc1OC1=CC(=O)N([C@@H](CC(C)C)C(=O)Nc2ccn(C[C@@H]3COC(C)(C)O3)n2)C1 [Example 123, (S)-4-Methyl-2-(2-oxo-4-o-tolyloxy-2,5-dihydro-pyrrol-1-yl)-pentanoic acid [1-((R)-2,2-dimethyl-[1,3]dioxolan-4-yl-methyl)-1H-pyrazol-3-yl]-amide] — within 1.5-fold, 1.294 µM
- CC(C)(O)Cn1ccc(NC(=O)C(C[C@H]2C[C@@H](C)C2)N2CC(Oc3ccccc3Cl)=CC2=O)n1 (stereo partly drawn) [Example 217, 2-[4-(2-Chloro-phenoxy)-2-oxo-2,5-dihydro-pyrrol-1-yl]-N-[1-(2-hydroxy-2-methyl-propyl)-1H-pyrazol-3-yl]-3-(cis-3-methyl-cyclobutyl)-propionamide] — 13-fold lower, 0.137 µM
- CC(C)C[C@@H](C(=O)Nc1cnccn1)N1CC(Oc2cccc(C(O)CO)c2F)=CC1=O (stereo partly drawn) [Example 155, (S)-2-{4-[3-(1,2-Dihydroxy-ethyl)-2-fluoro-phenoxy]-2-oxo-2,5-dihydro-pyrrol-1-yl}-4-methyl-pentanoic acid pyrazin-2-ylamide] — within 1.5-fold, 1.717 µM
- CC(C)(O)Cn1ccc(NC(=O)[C@H](CC2CCCCC2)N2CC(Oc3cc(Cl)ccc3Cl)=CC2=O)n1 [Example 201, (S)-3-cyclohexyl-2-[4-(2,5-dichloro-phenoxy)-2-oxo-2,5-dihydro-pyrrol-1-yl]-N-[1-(2-hydroxy-2-methyl-propyl)-1H-pyrazol-3-yl]-propionamide] — 140-fold lower, 0.013 µM
- CC(C)(O)Cn1ccc(NC(=O)[C@H](CC2CCCCC2)N2CC(Oc3cccc(F)c3)=CC2=O)n1 [Example 206, (S)-3-cyclohexyl-2-[4-(3-fluoro-phenoxy)-2-oxo-2,5-dihydro-pyrrol-1-yl]-N-[1-(2-hydroxy-2-methyl-propyl)-1H-pyrazol-3-yl]-propionamide] — 53-fold lower, 0.034 µM
- O=C(Nc1ccn(C[C@@H](O)CO)n1)[C@H](CCO)N1CC(Oc2ccccc2Cl)=CC1=O [Example 222, (S)-2-[4-(2-Chloro-phenoxy)-2-oxo-2,5-dihydro-pyrrol-1-yl]-N-[1-((R)-2,3-dihydroxy-propyl)-1H-pyrazol-3-yl]-4-hydroxy-butyramide] — 8.5-fold higher, 15.278 µM
- Cc1cccc(OC2=CC(=O)N([C@@H](CC3CCCCC3)C(=O)Nc3ccn(CC(C)(C)O)n3)C2)c1 [Example 210, (S)-3-cyclohexyl-N-[1-(2-hydroxy-2-methyl-propyl)-1H-pyrazol-3-yl]-2-(2-oxo-4-m-tolyloxy-2,5-dihydro-pyrrol-1-yl)-propionamide] — 100-fold lower, 0.018 µM
- O=C(Nc1ccn(C[C@@H](O)CO)n1)[C@H](Cc1ccccc1F)N1CC(Oc2ccccc2Cl)=CC1=O [Example 183, (S)-2-[4-(2-chloro-phenoxy)-2-oxo-2,5-dihydro-pyrrol-1-yl]-N-[1-((R)-2,3-dihydroxy-propyl)-1H-pyrazol-3-yl]-3-(2-fluorophenyl)-propionamide] — 5.5-fold lower, 0.325 µM
- CC(C)(O)Cn1ccc(NC(=O)[C@H](CC2CCCCC2)N2CC(OCC3COc4ccccc4O3)=CC2=O)n1 (stereo partly drawn) [Example 60, (S)-3-Cyclohexyl-2-[4-(2,3-dihydro-benzo[1,4]dioxin-2-ylmethoxy)-2-oxo-2,5-dihydro-pyrrol-1-yl]-N-[1-(2-hydroxy-2-methyl-propyl)-1-H-pyrazol-3-yl]-propionamide] — 1.8-fold lower, 0.99 µM
- CCOc1ccc(F)c(OC2=CC(=O)N(C(CC3CCOCC3)C(=O)Nc3ccn(CC(C)(C)O)n3)C2)c1F (stereo not shown) [Example 256, 2-[4-(3-Ethoxy-2,6-difluoro-phenoxy)-2-oxo-2,5-dihydro-pyrrol-1-yl]-N-[1-(2-hydroxy-2-methyl-propyl)-1H-pyrazol-3-yl]-3-(tetrahydro-pyran-4-yl)-propionamide] — 41-fold lower, 0.044 µM
- CCOc1cccc(OC2=CC(=O)N([C@@H](CC(C)C)C(=O)Nc3ccn(C[C@@H](O)CO)n3)C2)c1 [Example 162, (S)-2-[4-(3-Ethoxy-phenoxy)-2-oxo-2,5-dihydro-pyrrol-1-yl]-4-methyl-pentanoic acid [1-((R)-2,3-dihydroxy-propyl)-1H-pyrazol-3-yl]-amide] — 5.9-fold lower, 0.307 µM
- O=C(Nc1ccn(C[C@@H](O)CO)n1)C(CC1CCOCC1)N1CC(Oc2c(F)cccc2F)=CC1=O (stereo partly drawn) [Example 44, 2-[4-(2,6-Difluoro-phenoxy)-2-oxo-2,5-dihydro-pyrrol-1-yl]-N-[1-((R)-2,3-dihydroxy-propyl)-1H-pyrazol-3-yl]-3-(tetrahydro-pyran-4-yl)-propionamide] — 11-fold lower, 0.165 µM
- CCOc1ccccc1OC1=CC(=O)N([C@@H](CC(C)C)C(=O)Nc2ccn(CCO)n2)C1.Cl [Example 85, (S)-2-[4-(2-Ethoxy-phenoxy)-2-oxo-2,5-dihydro-pyrrol-1-yl]-4-methyl-pentanoic acid [1-(2-hydroxy-ethyl)-1H-pyrazol-3-yl]-amide Hydrochloride] — within 1.5-fold, 1.998 µM
- CC(C)(O)Cn1ccc(NC(=O)[C@@H](C[C@H]2C[C@H](C)C2)N2CC(Oc3ccccc3Cl)=CC2=O)n1 (single isomer, unassigned) [Example 216] — 1.5-fold higher, 2.715 µM
- COc1ccccc1OC1=CC(=O)N([C@@H](CC2CCCO2)C(=O)Nc2ccn(CC(C)(C)O)n2)C1 (stereo partly drawn) [Example 178, (S)-N-[1-(2-hydroxy-2-methyl-propyl)-1H-pyrazol-3-yl]-2-[4-(2-methoxy-phenoxy)-2-oxo-2,5-dihydro-pyrrol-1-yl]-3-(tetrahydro-furan-2-yl)-propionamide] — within 1.5-fold, 2.231 µM
- COC1=CC(=O)N([C@@H](CC2CCCC2)C(=O)Nc2cnccn2)C1 [Example 9, (S)-3-Cyclopentyl-2-(4-methoxy-2-oxo-2,5-dihydro-pyrrol-1-yl)-N-pyrazin-2-yl-propionamide] — 3.6-fold higher, 6.54 µM
- COc1cccc(OC2=CC(=O)N([C@@H](CC3CCCC3)C(=O)Nc3ccn(C[C@@H](O)CO)n3)C2)c1Cl [Example 55, (S)-2-[4-(2-Chloro-3-methoxy-phenoxy)-2-oxo-2,5-dihydro-pyrrol-1-yl]-3-cyclopentyl-N-[1-((R)-2,3-dihydroxy-propyl)-1H-pyrazol-3-yl]-propionamide] — 260-fold lower, 0.007 µM
- CC(C)C[C@@H](C(=O)Nc1ccn(C[C@@H](O)CO)n1)N1CC(Oc2cccc3c2cnn3C)=CC1=O [Example 240, (S)-4-Methyl-2-[4-(1-methyl-1H-indazol-4-yloxy)-2-oxo-2,5-dihydro-pyrrol-1-yl]-pentanoic acid [1-((R)-2,3-dihydroxy-propyl)-1H-pyrazol-3-yl]-amide] — within 1.5-fold, 2.636 µM
- COc1ccccc1OC1=CC(=O)N([C@@H](CC2CCCCC2)C(=O)Nc2ccn(C[C@H](O)CO)n2)C1 [Example 30, (S)-3-Cyclohexyl-N-[1-((S)-2,3-dihydroxy-propyl)-1H-pyrazol-3-yl]-2-[4-(2-methoxy-phenoxy)-2-oxo-2,5-dihydro-pyrrol-1-yl]-propionamide] — 58-fold lower, 0.031 µM

In the case of `Cc1nsc(NC(=O)[C@H](CC(C)C)N2CC(Oc3ccccc3Cl)=CC2=O)n1` [Example 107, (S)-2-[4-(2-Chloro-phenoxy)-2-oxo-2,5-dihydro-pyrrol-1-yl]-4-methyl-pentanoic acid (3-methyl-[1,2,4]thiadiazol-5-yl)-amide], the “SC1.5 (concentration of activator that produced a 50% increase in the activity of GK)” value is reported as over 30 µM.
In the case of `CC(C)C[C@@H](C(=O)Nc1nc(C2CC2)ns1)N1CC(Oc2ccccc2Cl)=CC1=O` [Example 105, (S)-2-[4-(2-Chloro-phenoxy)-2-oxo-2,5-dihydro-pyrrol-1-yl]-4-methyl-pentanoic acid (3-cyclopropyl-[1,2,4]thiadiazol-5-yl)-amide], the “SC1.5 (concentration of activator that produced a 50% increase in the activity of GK)” value is reported as over 30 µM.

Same assay, conditions: at 30 μM test compound

Point of comparison: `CC(C)C[C@@H](C(=O)Nc1nc(C2CC2)ns1)N1CC(Oc2ccccc2Cl)=CC1=O` [Example 105, (S)-2-[4-(2-Chloro-phenoxy)-2-oxo-2,5-dihydro-pyrrol-1-yl]-4-methyl-pentanoic acid (3-cyclopropyl-[1,2,4]thiadiazol-5-yl)-amide], “fold act. @ 30 μM” value 1.4 fold. Against it:
- Cc1nsc(NC(=O)[C@H](CC(C)C)N2CC(Oc3ccccc3Cl)=CC2=O)n1 [Example 107, (S)-2-[4-(2-Chloro-phenoxy)-2-oxo-2,5-dihydro-pyrrol-1-yl]-4-methyl-pentanoic acid (3-methyl-[1,2,4]thiadiazol-5-yl)-amide] — the same, 1.4 fold
